Measured values: PMC7049619 (Acta Pharmaceutica Sinica. B, 2019)
Values joined by “and” are separate entries in the source; they are usually repeats but may differ in a detail not shown here. Equal entries are not always repeated.

Assays:
HIV-1IIIB = experiment: Anti-HIV-1 activity; format: cell-based; conditions: for SI (selectivity index): ratio CC50/EC50, C8166 cells, Table 1; for times more potent than NVP: C8166, Table 1 EC50
[1] = Cytotoxicity in C8166 cells by MTT method; conditions: human
[2] = test system: K103N/Y181C double mutant HIV-1 strain; conditions: cited from earlier work
HIV-1RF/V82F/184V = experiment: Anti-HIV-1 activity against resistant strain HIV-1RF/V82F/184V in C8166 cells; format: cell-based; conditions: Human immunodeficiency virus 1, C8166
HIV-1TC-1 = format: cell-based; conditions: Human immunodeficiency virus 1, PBMC, HIV-1TC-1, PBMC; Table 2
HIV-1Ba-L = experiment: Anti-HIV-1Ba-L activity, luciferase gene expression assay in TZM-bl cells; format: cell-based; conditions: Human immunodeficiency virus 1, TZM-b1
[3] = Cytotoxicity in TZM-bl cells; format: cell-based; conditions: human
recombinant HIV-1 RT = recombinant HIV-1 RT (Human immunodeficiency virus type 1 group M subtype B, UniProt P04585); experiment: Enzymatic recombinant HIV-1 RT activity assay; format: biochemical
HIV-1_74V = experiment: Anti-HIV-1 activity against resistant strain HIV-1_74V in C8166 cells; format: cell-based; conditions: Human immunodeficiency virus 1, C8166
HIV-1WAN = format: cell-based; conditions: Human immunodeficiency virus 1, PBMC
in vivo = conditions: male, Sprague-Dawley, rat, plasma
Cytotoxicity in PBMC = format: cell-based; conditions: human, PBMC (peripheral blood mononuclear cells)
HIV-1A17 (K103N + Y181C) = experiment: Anti-HIV-1 activity against resistant strain HIV-1A17; format: cell-based; conditions: Human immunodeficiency virus 1, C8166
[4] = test system: HIV-1 laboratory adapted strains and primary isolated strains; format: cell-based; conditions: HIV-1IIIB, HIV-1Ba-L and HIV-1TC-1; Table 2 EC50

SMILES: Cc1cn([C@H]2C[C@H](N=[N+]=[N-])[C@@H](CO)O2)c(=O)[nH]c1=O [AZT, zidovudine, reference compound]
- SI (selectivity index) (HIV-1IIIB): >22,472
- CC50 at 3 days [1]: > 200000 nM

SMILES: Cc1cc(C#N)cc(C)c1Oc1nc(Nc2ccc(C#N)cc2)nc(N)c1Br [ETR, etravirine, reference compound]
- EC50 [2]: 50 nM
- SI (selectivity index) (HIV-1IIIB): 19,628
- CC50 at 3 days [1]: 27500 ± 5690 nM

SMILES: CCc1c(CC2CCCCC2)nc(SCc2cc(-c3ccccc3)[nH]n2)[nH]c1=O [I-01, 6-(Cyclohexylmethyl)-5-ethyl-2-(((5-phenyl-1H-pyrazol-3-yl)methyl)thio)pyrimidin-4(3H)-one]
- times more potent than NVP (HIV-1IIIB): about 10 times

SMILES: CCc1c(CC2CCCCC2)nc(SCc2cc(-c3cccc(C)c3)[nH]n2)[nH]c1=O [I-02, 6-(Cyclohexylmethyl)-5-ethyl-2-(((5-(m-tolyl)-1H-pyrazol-3-yl)methyl)thio)pyrimidin-4(3H)-one]
- SI (selectivity index) (HIV-1IIIB): 1120
- CC50 at 3 days [1]: 82800 ± 2200 nM

SMILES: CCc1c(CC2CCCCC2)nc(SCc2cc(-c3ccc(C)cc3)[nH]n2)[nH]c1=O [I-07, 6-(Cyclohexylmethyl)-5-ethyl-2-(((5-(p-tolyl)-1H-pyrazol-3-yl)methyl)thio)pyrimidin-4(3H)-one]
- SI (selectivity index) (HIV-1IIIB): 1748
- CC50 at 3 days [1]: 91400 ± 1900 nM

SMILES: CCc1c(CC2CCCCC2)nc(SCc2cc(-c3ccc(O)cc3)[nH]n2)[nH]c1=O [I-11, 6-(Cyclohexylmethyl)-5-ethyl-2-(((5-(4-hydroxyphenyl)-1H-pyrazol-3-yl)methyl)thio)pyrimidin-4(3H)-one]
- EC50 (HIV-1RF/V82F/184V): 54.1 ± 23.1 nM
- EC50 (HIV-1TC-1): 14.5 ± 0.1 nM
- EC50 (HIV-1Ba-L): 48.5 ± 6.8 nM
- CC50 at 3 days [3]: 77100 ± 3680 nM
- IC50 (recombinant HIV-1 RT): 1090 ± 590 nM
- EC50 (HIV-1_74V): 46.2 ± 23.7 nM
- times more potent than NVP (HIV-1IIIB): about 10 times
- EC50 (HIV-1WAN): 56.6 ± 2.4 nM
- AUC(0-inf) (in vivo; iv, 1 mg/kg): 2630 ng·h/mL
- AUC(0-t) (in vivo; iv, 1 mg/kg): 2600 ng·h/mL
- Cmax (in vivo; iv, 1 mg/kg): 7180 ng/mL
- MRT inf (in vivo; iv, 1 mg/kg): 33.2 min
- Vd (in vivo; iv, 1 mg/kg): 0.213 L/kg
- clearance (in vivo; iv, 1 mg/kg): 6.4 mL/min/kg
- half-life (in vivo; iv, 1 mg/kg): 72 min
- bioavailability (in vivo; oral, 5 mg/kg): 10.4%
- AUC(0-inf) (in vivo; po, 5 mg/kg): 1370 ng·h/mL
- AUC(0-t) (in vivo; po, 5 mg/kg): 1300 ng·h/mL
- CL/F (in vivo; po, 5 mg/kg): 63.8 mL/min/kg
- Cmax (in vivo; po, 5 mg/kg): 1.54 µM and 654 ng/mL
- MRT (in vivo; po, 5 mg/kg): 33.2 min
- Tmax (in vivo; po, 5 mg/kg): 30 min
- half-life (in vivo; po, 5 mg/kg): 150 min
- CC50 (Cytotoxicity in PBMC): 46800 ± 5200 nM
- EC50 (HIV-1A17 (K103N + Y181C)): 2770 ± 820 nM
- times more potent than NVP [4]: 5–14 times

SMILES: CCc1c(CC2CCCCC2)nc(SCc2cc(-c3ccc(SC)cc3)[nH]n2)[nH]c1=O [I-12, 6-(Cyclohexylmethyl)-5-ethyl-2-(((5-(4-(methylthio)phenyl)-1H-pyrazol-3-yl)methyl)thio)pyrimidin-4(3H)-one]
- EC50 (HIV-1RF/V82F/184V): 219 ± 46.5 nM
- EC50 (HIV-1TC-1): 55.4 ± 11.2 nM
- EC50 (HIV-1Ba-L): 193 ± 26.1 nM
- CC50 at 3 days [3]: > 200000 nM
- IC50 (recombinant HIV-1 RT): 2270 ± 120 nM
- EC50 (HIV-1_74V): 88.1 ± 17.9 nM
- EC50 (HIV-1WAN): 165 nM
- CC50 (Cytotoxicity in PBMC): > 200000 nM
- EC50 (HIV-1A17 (K103N + Y181C)): 4870 ± 2710 nM

SMILES: CCc1c(CC2CCCCC2)nc(SCc2n[nH]c(-c3ccc(Cl)c(Cl)c3)c2Cl)[nH]c1=O [I-32, 2-(((4-Chloro-5-(3,4-dichlorophenyl)-1H-pyrazol-3-yl)methyl)thio)-6-(cyclohexylmethyl)-5-ethyl-pyrimidin-4(3H)-one]
- SI (selectivity index) (HIV-1IIIB): 544
- CC50 at 3 days [1]: 190000 ± 13900 nM

SMILES: O=c1cc(CC2CCCCC2)nc(SCc2cc(-c3ccccc3)[nH]n2)[nH]1 [I-38, 6-(Cyclohexylmethyl)-2-(((5-phenyl-1H-pyrazol-3-yl)methyl)thio)pyrimidin-4(3H)-one]
- SI (selectivity index) (HIV-1IIIB): 16
- CC50 at 3 days [1]: 79100 ± 5340 nM

SMILES: Cc1ccnc2c1NC(=O)c1cccnc1N2C1CC1 [NVP, nevirapine, reference compound]
- EC50 (HIV-1RF/V82F/184V): 61.4 ± 8.5 nM
- EC50 (HIV-1TC-1): 199 ± 48.7 nM
- EC50 (HIV-1Ba-L): 166 ± 46.5 nM
- CC50 at 3 days [3]: > 200000 nM
- EC50 (HIV-1_74V): 76.8 ± 19.3 nM
- EC50 (HIV-1WAN): 77 ± 19.3 nM
- CC50 (Cytotoxicity in PBMC): > 200000 nM
- EC50 (HIV-1A17 (K103N + Y181C)): 20200 ± 3100 nM
